According to PMC12197678, “Cvill6 and Cvill7: Potent and Selective Peptide Blockers of Kv1.2 Ion Channel Isolated from Mexican Scorpion Centruroides villegasi” (Toxins, 2025):

Legend:
Kv1.2 = settings: ref [21],[22]; cited from earlier work
From the text: The Kv1.2 ion channel, a member of voltage-gated potassium channels, is encoded by the KCNA2 gene. Kv1.2 is predominantly expressed in the central nervous system (CNS) abundantly in the cerebellum, hippocampus, and cortex. It plays a crucial role in action potential propagation, neuronal excitability, and synaptic transmission. Gain-of-function (GOF) mutations in KCNA2 cause increased Kv1.2 activity, resulting in excessive potassium conductance leading to neuronal hyperpolarization, and impairing normal brain function. A decade ago, Kv1.2 emerged as a key factor ...

hKv1.3 = target: T1, hKv1.3 (Homo sapiens, UniProt P22001); test: cell-based; assay type: cell-based
T1 construct: peripheral blood mononuclear cells (PBMCs) were isolated from the healthy donor’s blood; endogenous in cells
T1 sequence (P22001 whole entry): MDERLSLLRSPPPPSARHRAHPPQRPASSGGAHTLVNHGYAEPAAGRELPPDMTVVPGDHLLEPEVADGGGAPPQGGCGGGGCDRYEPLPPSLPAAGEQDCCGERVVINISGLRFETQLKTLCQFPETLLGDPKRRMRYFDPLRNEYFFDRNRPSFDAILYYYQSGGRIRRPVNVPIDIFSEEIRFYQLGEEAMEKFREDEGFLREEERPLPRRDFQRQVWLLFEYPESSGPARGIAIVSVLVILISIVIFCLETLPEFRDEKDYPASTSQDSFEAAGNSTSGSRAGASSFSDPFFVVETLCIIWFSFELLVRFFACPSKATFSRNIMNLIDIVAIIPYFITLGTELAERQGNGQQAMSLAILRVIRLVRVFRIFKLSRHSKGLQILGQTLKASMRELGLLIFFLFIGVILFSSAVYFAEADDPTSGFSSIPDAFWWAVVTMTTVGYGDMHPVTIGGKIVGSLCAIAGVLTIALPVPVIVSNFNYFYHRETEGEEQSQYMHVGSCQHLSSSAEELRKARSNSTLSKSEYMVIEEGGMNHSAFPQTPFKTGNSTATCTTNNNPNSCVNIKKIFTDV
From the text: Therefore, we aimed to investigate the effects of Cvill6 and Cvill7 on voltage-gated K^+ ion channels. Among the tested ion channels there were four members from the Shaker-related human Kv1 family, hKv1.1, hKv1.2, hKv1.3, and hKv1.5 (Figure 3A–E), and one member of the human ether-a-go-go-related (hERG) cardiac K^+ channel hKv11.1 (hERG1, Figure 3F). For current recordings, Kv1.1, Kv1.2, and Kv1.5 were transiently expressed in CHO cells while for Kv11.1 a stable HEK293 cell line was used. To record Kv1.3 currents human peripheral T lymphocytes were activated with Phytohemagglutinin A (PHA) to boost Kv1.3 expression and Ca^2+-free intracellular solution to prevent the KCa3.1 channel opening. […] Appropriate voltage protocols were applied to record the K^+ currents from voltage-clamped cells in whole-cell configurations. Toxins were freshly dissolved in the bath solution supplemented with 0.1 mg/mL BSA and applied to the patched cells via a gravity-fed micro-perfusion system with an approximate flow rate of 200 µL/min.
To avoid toxin adsorption onto the plastic surfaces of the perfusion system, 0.1 mg/mL of bovine serum albumin (BSA, Sigma-Aldrich, Budapest, Hungary) was also added into all bath solutions prior to the patch-clamp assay.
Whole-cell currents were recorded using the patch-clamp technique in voltage-clamp mode, following standard protocols. […] Micropipettes were made from GC150F-7.5 borosilicate capillaries (Harvard Apparatus Co., Holliston, MA, USA) using a Sutter P2000 laser puller with tip resistance generally ranging from 3–6 MΩ in the bath solution. Only recordings with a leak current at the holding potential (Vh) of <10% of the peak current at the test potential were included in the data analysis. All recordings were performed at room temperature (20–25 °C). Control and test solutions were perfused to the cells via a gravity-driven micro-perfusion system and AutoMate Perfusion Pencil Multi-Barrel Manifold Tip (AutoMate Scientific, Berkeley, CA, USA), with an approximate flow rate of 200 µL/min, and the excess amount of bath solution was continuously removed from the recording chamber using vacuum suction.
The duration of depolarization pulses was 15 ms for Kv1.3 and 50 ms for Kv1.1 and Kv1.5. However, for Kv1.2, 15–500 ms-long pulses were used to achieve the saturated peak current due to the variable activation kinetics of this channel. […] KCa2.2 and KCa3.1 currents were recorded by applying 150 ms-long voltage ramps to +50 mV from −120 mV every 10 s; the Vh was set to −85 mV.
Before analysis, all current traces were digitally filtered using three-point boxcar smoothing and were corrected for ohmic leakage, only if required. […] Data points in the concentration–response curve represent the mean RCF values of three to six individual cells, with error bars denoting the standard error of the mean (SEM). The data points for each concentration were fitted using the Hill equation: RCF = IC50^H/(IC50^H + [toxin]^H), where IC50 is the dissociation constant, H represents the Hill coefficient, and [toxin] is the concentration of the toxin.
To study the binding kinetics of Cvill toxins, the peak current during the application of toxin at time point t (It) was normalized to the peak current (I0) before the toxin exposure (Inorm = It/I0) and plotted as a function of time.

hKv1.1 = target: T2, hKv1.1 (Homo sapiens, UniProt Q09470); test: cell-based; assay type: cell-based
T2 construct: host or cells: CHO cells, transient transfection (Lipofectamine 2000)
T2 sequence (Q09470 whole entry): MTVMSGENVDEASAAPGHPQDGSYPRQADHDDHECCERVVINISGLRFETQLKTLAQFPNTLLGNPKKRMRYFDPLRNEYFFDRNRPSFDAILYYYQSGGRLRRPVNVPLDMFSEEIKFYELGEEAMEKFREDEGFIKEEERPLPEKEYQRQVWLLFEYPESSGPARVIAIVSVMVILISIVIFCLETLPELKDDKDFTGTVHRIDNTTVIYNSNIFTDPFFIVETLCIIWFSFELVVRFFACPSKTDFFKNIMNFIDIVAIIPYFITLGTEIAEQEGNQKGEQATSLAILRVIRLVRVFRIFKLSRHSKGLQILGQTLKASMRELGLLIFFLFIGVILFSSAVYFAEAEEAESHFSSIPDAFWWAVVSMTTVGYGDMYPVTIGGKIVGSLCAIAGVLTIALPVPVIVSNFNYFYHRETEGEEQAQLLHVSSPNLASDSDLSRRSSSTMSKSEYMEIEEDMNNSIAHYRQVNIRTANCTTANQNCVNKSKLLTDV
Description: (§1) Chinese hamster ovary (CHO) cells (generously provided by Yosef Yarden, Weizmann Institute of Science, Rehovot, Israel) or human embryonic kidney (HEK293) cells were cultured and maintained in Dulbecco’s modified Eagle medium (DMEM, Thermo Fisher Scientific, Waltham, MA, USA) supplemented with 2 mM L-glutamine, 10% fetal bovine serum (FBS), 100 µg/mL streptomycin, and 100 U/mL penicillin-g (Sigma-Aldrich, Budapest, Hungary) following standard culturing conditions [52]. For transient expression of ion channels, CHO cells were transfected using the Lipofectamine 2000 kit (Invitrogen, Waltham, MA, USA) following the manufacturer’s instructions with plasmids encoding specific ion channels, including hKv1.1 (KCNA1 gene), hKv1.2 (KCNA2 gene), and hKv1.5 (KCNA5 gene) in a pCMV6-AC-GFP vector (OriGene Technologies), hKCa2.2 (KCNN2 gene) in a pCDN3 plasmid (for this transfection a GFP containing plasmid was co-transfected, courtesy of Bernard Attali, Tel Aviv University, Tel Aviv, Israel), and hKCa3.1 (KCNN4 gene) in a pEGFP-C1 vector (a kind gift by H. Wulff, University of California, Davis, CA, USA). […] Electrophysiological recordings were typically conducted 24 to 48 h after transfection.
(§2) Whole-cell currents were recorded using the patch-clamp technique in voltage-clamp mode, following standard protocols [73]. […] Micropipettes were made from GC150F-7.5 borosilicate capillaries (Harvard Apparatus Co., Holliston, MA, USA) using a Sutter P2000 laser puller with tip resistance generally ranging from 3–6 MΩ in the bath solution. Only recordings with a leak current at the holding potential (Vh) of <10% of the peak current at the test potential were included in the data analysis. All recordings were performed at room temperature (20–25 °C). Control and test solutions were perfused to the cells via a gravity-driven micro-perfusion system and AutoMate Perfusion Pencil Multi-Barrel Manifold Tip (AutoMate Scientific, Berkeley, CA, USA), with an approximate flow rate of 200 µL/min, and the excess amount of bath solution was continuously removed from the recording chamber using vacuum suction.
(§3) The duration of depolarization pulses was 15 ms for Kv1.3 and 50 ms for Kv1.1 and Kv1.5. However, for Kv1.2, 15–500 ms-long pulses were used to achieve the saturated peak current due to the variable activation kinetics of this channel [74].

hKv1.5 = assay type: cell-based, human
Description: Chinese hamster ovary (CHO) cells (generously provided by Yosef Yarden, Weizmann Institute of Science, Rehovot, Israel) or human embryonic kidney (HEK293) cells were cultured and maintained in Dulbecco’s modified Eagle medium (DMEM, Thermo Fisher Scientific, Waltham, MA, USA) supplemented with 2 mM L-glutamine, 10% fetal bovine serum (FBS), 100 µg/mL streptomycin, and 100 U/mL penicillin-g (Sigma-Aldrich, Budapest, Hungary) following standard culturing conditions [52]. For transient expression of ion channels, CHO cells were transfected using the Lipofectamine 2000 kit (Invitrogen, Waltham, MA, USA) following the manufacturer’s instructions with plasmids encoding specific ion channels, including hKv1.1 (KCNA1 gene), hKv1.2 (KCNA2 gene), and hKv1.5 (KCNA5 gene) in a pCMV6-AC-GFP vector (OriGene Technologies), hKCa2.2 (KCNN2 gene) in a pCDN3 plasmid (for this transfection a GFP containing plasmid was co-transfected, courtesy of Bernard Attali, Tel Aviv University, Tel Aviv, Israel), and hKCa3.1 (KCNN4 gene) in a pEGFP-C1 vector (a kind gift by H. Wulff, University of California, Davis, CA, USA). […] Electrophysiological recordings were typically conducted 24 to 48 h after transfection. […]
Whole-cell currents were recorded using the patch-clamp technique in voltage-clamp mode, following standard protocols [73]. […]

hKv1.2 = target: T3, hKv1.2 (Homo sapiens, UniProt P16389); test: Whole-cell patch-clamp, hKv1.2 current in transiently transfected CHO cells; assay type: cell-based; settings: positive control
T3 construct: host or cells: CHO cells, transient transfection (Lipofectamine 2000)
T3 sequence (P16389 whole entry): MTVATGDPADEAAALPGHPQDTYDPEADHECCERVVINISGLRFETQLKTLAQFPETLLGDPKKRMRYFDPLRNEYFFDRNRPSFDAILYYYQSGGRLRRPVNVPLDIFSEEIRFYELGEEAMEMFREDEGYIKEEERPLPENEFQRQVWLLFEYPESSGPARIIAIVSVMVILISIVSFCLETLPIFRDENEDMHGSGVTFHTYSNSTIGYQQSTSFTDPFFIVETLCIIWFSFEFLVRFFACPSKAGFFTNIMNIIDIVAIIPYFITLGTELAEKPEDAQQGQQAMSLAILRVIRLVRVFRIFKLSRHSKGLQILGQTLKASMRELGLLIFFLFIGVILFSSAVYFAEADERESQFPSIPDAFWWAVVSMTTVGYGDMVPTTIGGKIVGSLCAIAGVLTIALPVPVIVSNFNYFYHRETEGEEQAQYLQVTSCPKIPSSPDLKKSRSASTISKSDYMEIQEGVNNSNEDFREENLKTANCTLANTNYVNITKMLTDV
Description: as §1, §2, §3

In the case of `Nc1ccncc1` [4-aminopyridine], the “effect on gain-of-function defects in patients with KCNA2-related encephalopathy” value (Kv1.2) is listed as “can mitigate the gain-of-function defects in patients”.
For `CC[N+](CC)(CC)CC` [TEA^+, tetraethylammonium chloride, reference compound], the “inhibition of Kv1.3 by positive control” value (hKv1.3) was “fully reversible inhibitors”, the “inhibition of Kv1.1 by positive control” value (hKv1.1) was “fully reversible inhibitors” and the “inhibition of Kv1.5 by positive control” value (hKv1.5) was “fully reversible inhibitors”.
For charybdotoxin [reference compound], the “inhibition of Kv1.2 by positive control” value (hKv1.2) was “fully reversible inhibitors”.
